From US20050004039A1, “Selective analgesic agents” (Regents of the University of Minnesota, priority 2002, published 2005)

Tests used:
[1] = system: mice; assay: Antagonism of selective opioid agonist-induced antinociception, intrathecal, modified tail flick assay; assay type: in vivo, mouse; settings: for norBNI antagonism of antinociception with co-administered dynorphin-A antiserum (DAS): FIG. 7, FIG. 8
[2] = system: guinea pig ileum preparation; assay: Guinea pig ileal longitudinal muscle preparation, electrically stimulated contraction; settings: guinea pig ilium preparation
[3] = system: mouse vas deferens preparation; assay: Mouse vas deferens preparation (MVD)
Description: Mouse vasa deferentia are prepared using the method of Henderson, et al (see Henderson, G.; Hughes, J.; Kosterlitz, H. W., Br. J. Pharmacol. 1972, 46, 764-766). Male ICR mice (30-35 g) are killed by cervical dislocation. Both vasa deferentia are removed and mounted between platinum ring electrodes and placed in a 10-mL organ bath containing a modified Kreb's solution (NaCl, 118 mM; KCl, 4.70 mM;CaCl2, 2.52 mM; KH2PO4, 1.19 mM; NaHCO3, 25 mM; glucose, 11.48 mM; pH =7.4) at 37° C. The bath is continuously bubbled with a 95% O2, 5% CO2, gas mixture. One end of the vas deferens is attached to the electrode assembly, the other is attached to a Statham-Gould UC-3 isometric force transducer using 6.0 surgical silk. The vasa deferentia are stimulated transmurally with a Grass S44 stimulator (square waves of supramaximal voltage (70 V) for 1 msec and a frequency of 0.1 Hz). Resting tension is 200 mg. Vasa deferentia are stimulated continuously for 20 minutes before each experiment to allow equilibration to occur. The tissues are washed every 10 minutes during this period.

[4] = system: mice; assay: Tail-flick analgesia after intrathecal or intraventricular administration; assay type: in vivo, mouse
From the text: In the tail-flick assay which was modified for mice, the animal responses are made quantal by establishing and end point at the mean peak effect which represents an increase in the reaction time of an individual animal of greater than three S.D. of the control mean reaction time for all animals used in the group (see F. E. d'Amour et al., J. Pharmacol. Exp. Ther., 1941, 72, 7479; and J. J. Rady et al., J. Pharmacol Exp. Ther., 2000, 224, 93-101). Non-responding animals will be removed from the heat stimulus when reaction times exceed 3 seconds to avoid damage to their tails. At least 50 animals will be used to determine each peak time and ED50 dose-response curve. The ED50 and its 95% confidence interval are estimated using computer programs for both of these statistical procedures.

[5] = ED50 with nor-BNI / control ED50
[6] = agonist i.t. with antagonist BNTX 25 pmol/mouse i.t.
[7] = agonist i.t. with antagonist CTOP 5.9 pmol/mouse i.t.
[8] = agonist i.t. with antagonist NTB 50 pmol/mouse i.t.
[9] = agonist i.t. with antagonist nor-BNI 2.5 nmol/mouse i.t.
[10] = intrathecal (i.t.) administration

Molecule | Potency Ratio (95% C.I.) ([1]; ED50 with BNTX / control ED50) | Potency Ratio (95% C.I.) ([1]; ED50 with CTOP / control ED50) | Potency Ratio (95% C.I.) ([1]; ED50 with NTB / control ED50) | Potency Ratio (95% C.I.) [1, 5] | norBNI antagonism of antinociception with co-administered dynorphin-A antiserum (DAS) [1] | ED50 (95% C.I.) [1, 6] | ED50 (95% C.I.) [1, 7] | ED50 (95% C.I.) [1, 8] | ED50 (95% C.I.) [1, 9] | antagonism of antinociception by CTOP (μ antagonist), in words ([1]; i.t., mice) | antagonism of antinociception by nor-BNI (κ antagonist), in words ([1]; i.t., mice) | antagonism of agonist effect by delta antagonist naltrindole (NTI) [2] | agonist or antagonist activity in MVD [3] | analgesia ([4]; icv, concentration 20-fold that of the i.t. dose) [%] | ED50 analgesia [4, 10] [nmol/mouse] | antagonism of i.t. analgesia by norBNI [4, 10] | analgesic effect ([4]; intraventricular (icv), 10-fold higher concentration than i.t.) | antagonism of antinociception by BNTX, in words ([1]; i.t., mice)
C[C@@H](NC(=O)[C@@H](N)Cc1ccc(O)cc1)C(=O)NCC(=O)N(C)[C@@H](Cc1ccccc1)C(=O)NCCO [DAMGO, [D-Ala^2,N-Me-Phe^4,Gly-ol^5]enkephalin] | 1.50 (0.94-2.83) | 9.89 (5.91-15.34) | 1.20 (0.61-3.26) | 26.26 (16.30-46.90) | little if any antagonism | 0.017 (0.012-0.027) nmol/mouse | 0.112 (0.070-0.157) nmol/mouse | 0.014 (0.008-0.027) nmol/mouse | 0.283 (0.202-0.417) nmol/mouse | antagonized | antagonized | – | – | – | – | – | – | –
NC(N)=Nc1ccc2c3c([nH]c2c1)[C@@H]1Oc2c(O)ccc4c2[C@@]12CCN(CC1CC1)C(C4)[C@]2(O)C3 [compound 7, 6′-Guanidino-17-(cyclopropylmethyl)-6,7-didehydro-4,5α-epoxy-3,14-hydroxyindolo-[2′,3′:6,7]morphinian] | – | – | – | – | – | – | – | – | – | – | – | non-competetively antagonized | inactive as an agonist or as an antagonist | 20 | 0.45 | could be antagonized by norBNI | no analgesic effect | –
[D-Pen^2,5]enkephalin [DPDPE] | 10.61 (6.08-18.51) | 1.43 (1.06-1.93) | 0.98 (0.71-1.41) | 12.44 (9.91-15.83) | failed to substantially reduce the potent norBNI antagonism | 41.10 (26.44-60.95) nmol/mouse | 5.11 (4.04-6.37)) nmol/mouse | 3.44 (2.69-4.45) nmol/mouse | 43.30 (36.40-51.59) nmol/mouse | – | antagonized | – | – | – | – | – | – | antagonized
